Assay results as given in the NIST ThermoML archive (doi:10.1021/je300997v).
± gives the expanded uncertainty stated by the source.

Test: xn = mol fraction of the nth substance listed
Settings: 101 kPa, Liquid; for viscosity: Capillary tube (Ostwald / Ubbelohde) method; for mass density: Pycnometric method; for electrical conductivity: conductivity meter

C[N+](C)(C)CCO.[Cl-] [choline chloride] + Oc1ccccc1
viscosity (293.2 K, x2 = 0.6667): 120.77 ± 7.6 mPa·s | viscosity (293.2 K, x2 = 0.75): 57.84 ± 3.6 mPa·s | viscosity (293.2 K, x2 = 0.8): 40.23 ± 2.5 mPa·s | viscosity (293.2 K, x2 = 0.8333): 31.96 ± 2 mPa·s | viscosity (293.2 K, x2 = 0.8571): 27.03 ± 1.7 mPa·s | mass density (293.2 K, x2 = 0.6667): 1099.5 ± 2.4 kg/m3 | mass density (293.2 K, x2 = 0.75): 1094.8 ± 2.4 kg/m3 | mass density (293.2 K, x2 = 0.8): 1091.8 ± 2.4 kg/m3 | mass density (293.2 K, x2 = 0.8333): 1089.8 ± 2.4 kg/m3 | mass density (293.2 K, x2 = 0.8571): 1088.5 ± 2.4 kg/m3 | electrical conductivity (293.2 K, x2 = 0.6667): 0.14 ± 0.003 S/m | electrical conductivity (293.2 K, x2 = 0.75): 0.238 ± 0.005 S/m | electrical conductivity (293.2 K, x2 = 0.8): 0.275 ± 0.006 S/m | electrical conductivity (293.2 K, x2 = 0.8333): 0.281 ± 0.006 S/m | electrical conductivity (293.2 K, x2 = 0.8571): 0.273 ± 0.005 S/m | viscosity (298.2 K, x2 = 0.6667): 90.33 ± 5.6 mPa·s | viscosity (298.2 K, x2 = 0.75): 44.64 ± 2.8 mPa·s | viscosity (298.2 K, x2 = 0.8): 31.55 ± 1.9 mPa·s | viscosity (298.2 K, x2 = 0.8333): 25.25 ± 1.6 mPa·s | viscosity (298.2 K, x2 = 0.8571): 21.43 ± 1.3 mPa·s | mass density (298.2 K, x2 = 0.6667): 1096.7 ± 2.4 kg/m3 | mass density (298.2 K, x2 = 0.75): 1092.1 ± 2.4 kg/m3 | mass density (298.2 K, x2 = 0.8): 1089.3 ± 2.4 kg/m3 | mass density (298.2 K, x2 = 0.8333): 1087 ± 2.4 kg/m3 | mass density (298.2 K, x2 = 0.8571): 1085.2 ± 2.4 kg/m3 | electrical conductivity (298.2 K, x2 = 0.6667): 0.205 ± 0.004 S/m | electrical conductivity (298.2 K, x2 = 0.75): 0.314 ± 0.006 S/m | electrical conductivity (298.2 K, x2 = 0.8): 0.345 ± 0.007 S/m | electrical conductivity (298.2 K, x2 = 0.8333): 0.347 ± 0.007 S/m | electrical conductivity (298.2 K, x2 = 0.8571): 0.338 ± 0.007 S/m | viscosity (303.2 K, x2 = 0.6667): 68.41 ± 4.2 mPa·s | viscosity (303.2 K, x2 = 0.75): 35.17 ± 2.2 mPa·s | viscosity (303.2 K, x2 = 0.8): 25.2 ± 1.6 mPa·s | viscosity (303.2 K, x2 = 0.8333): 19.75 ± 1.2 mPa·s | viscosity (303.2 K, x2 = 0.8571): 16.82 ± 1 mPa·s | mass density (303.2 K, x2 = 0.6667): 1093 ± 2.4 kg/m3 | mass density (303.2 K, x2 = 0.75): 1089 ± 2.4 kg/m3 | mass density (303.2 K, x2 = 0.8): 1086 ± 2.4 kg/m3 | mass density (303.2 K, x2 = 0.8333): 1083.8 ± 2.4 kg/m3 | mass density (303.2 K, x2 = 0.8571): 1081.8 ± 2.4 kg/m3 | electrical conductivity (303.2 K, x2 = 0.6667): 0.265 ± 0.005 S/m | electrical conductivity (303.2 K, x2 = 0.75): 0.388 ± 0.008 S/m | electrical conductivity (303.2 K, x2 = 0.8): 0.421 ± 0.008 S/m | electrical conductivity (303.2 K, x2 = 0.8333): 0.425 ± 0.009 S/m | electrical conductivity (303.2 K, x2 = 0.8571): 0.409 ± 0.008 S/m | viscosity (308.2 K, x2 = 0.6667): 53.43 ± 3.3 mPa·s | viscosity (308.2 K, x2 = 0.75): 28.22 ± 1.7 mPa·s | viscosity (308.2 K, x2 = 0.8): 20.25 ± 1.2 mPa·s | viscosity (308.2 K, x2 = 0.8333): 16.16 ± 0.99 mPa·s | viscosity (308.2 K, x2 = 0.8571): 13.76 ± 0.84 mPa·s | mass density (308.2 K, x2 = 0.6667): 1090.1 ± 2.4 kg/m3 | mass density (308.2 K, x2 = 0.75): 1085.8 ± 2.4 kg/m3 | mass density (308.2 K, x2 = 0.8): 1081.9 ± 2.4 kg/m3 | mass density (308.2 K, x2 = 0.8333): 1080.3 ± 2.4 kg/m3 | mass density (308.2 K, x2 = 0.8571): 1078.2 ± 2.4 kg/m3 | electrical conductivity (308.2 K, x2 = 0.6667): 0.337 ± 0.007 S/m | electrical conductivity (308.2 K, x2 = 0.75): 0.477 ± 0.01 S/m | electrical conductivity (308.2 K, x2 = 0.8): 0.507 ± 0.01 S/m | electrical conductivity (308.2 K, x2 = 0.8333): 0.508 ± 0.01 S/m | electrical conductivity (308.2 K, x2 = 0.8571): 0.487 ± 0.01 S/m | viscosity (313.2 K, x2 = 0.6667): 42.42 ± 2.6 mPa·s | viscosity (313.2 K, x2 = 0.75): 23.08 ± 1.4 mPa·s | viscosity (313.2 K, x2 = 0.8): 16.71 ± 1 mPa·s | viscosity (313.2 K, x2 = 0.8333): 13.44 ± 0.82 mPa·s | viscosity (313.2 K, x2 = 0.8571): 11.45 ± 0.7 mPa·s | mass density (313.2 K, x2 = 0.6667): 1087.3 ± 2.4 kg/m3 | mass density (313.2 K, x2 = 0.75): 1082.9 ± 2.4 kg/m3 | mass density (313.2 K, x2 = 0.8): 1079.5 ± 2.4 kg/m3 | mass density (313.2 K, x2 = 0.8333): 1076.1 ± 2.4 kg/m3 | mass density (313.2 K, x2 = 0.8571): 1074.5 ± 2.4 kg/m3 | electrical conductivity (313.2 K, x2 = 0.6667): 0.416 ± 0.008 S/m | electrical conductivity (313.2 K, x2 = 0.75): 0.576 ± 0.012 S/m | electrical conductivity (313.2 K, x2 = 0.8): 0.602 ± 0.012 S/m | electrical conductivity (313.2 K, x2 = 0.8333): 0.599 ± 0.012 S/m | electrical conductivity (313.2 K, x2 = 0.8571): 0.574 ± 0.011 S/m | viscosity (318.2 K, x2 = 0.6667): 34.34 ± 2.1 mPa·s | viscosity (318.2 K, x2 = 0.75): 19.14 ± 1.2 mPa·s | viscosity (318.2 K, x2 = 0.8): 14 ± 0.86 mPa·s | viscosity (318.2 K, x2 = 0.8333): 11.26 ± 0.69 mPa·s | viscosity (318.2 K, x2 = 0.8571): 9.46 ± 0.58 mPa·s | mass density (318.2 K, x2 = 0.6667): 1084.3 ± 2.4 kg/m3 | mass density (318.2 K, x2 = 0.75): 1079.5 ± 2.4 kg/m3 | mass density (318.2 K, x2 = 0.8): 1076.3 ± 2.4 kg/m3 | mass density (318.2 K, x2 = 0.8333): 1073.6 ± 2.4 kg/m3 | mass density (318.2 K, x2 = 0.8571): 1071.7 ± 2.4 kg/m3 | electrical conductivity (318.2 K, x2 = 0.6667): 0.509 ± 0.01 S/m | electrical conductivity (318.2 K, x2 = 0.75): 0.677 ± 0.014 S/m | electrical conductivity (318.2 K, x2 = 0.8): 0.706 ± 0.014 S/m | electrical conductivity (318.2 K, x2 = 0.8333): 0.696 ± 0.014 S/m | electrical conductivity (318.2 K, x2 = 0.8571): 0.666 ± 0.013 S/m
